The first assay concerns ZIKV. The assay can be described thus: ZIKV reporter virus-based antiviral screening on Huh7 cells. The assay is classed as cell-based, Zika virus. To be noted: Huh7 cells infected with recombinant luciferase reporter ZIKV (MOI about 0.1), 48 hrs, luciferase signal; read-out: EC50. The method, boiled down: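 Huh7 cells in 2% FBS assay medium infected at MOI about 0.1 with Renilla or Nano luciferase ZIKV premixed with nine-point compound dilutions, 48 hrs at 37° C. Luciferase signal normalized to DMSO controls as 100%; viability optionally by CellTiter-Glo with Rlu virus.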
In general terms: In a reporter assay the amount or activity of a reporter protein is the signal.
`CC[C@H](C)[C@H](NC(=O)OC)C(=O)N1C[C@@H](C)C[C@H]1c1nc(Cl)c(-c2cc3c4c(c2)OCc2cc(-c5[nH]c([C@@H]6C[C@H](C)CN6C(=O)[C@@H](NC(=O)OC)[C@@H](C)CC)nc5C(C)C)cc(c2-4)OC3)[nH]1` [Compound 73, methyl ((2S,3S)-1-((2S,4S)-2-(5-(7-(4-chloro-2-((2S,4S)-1-((methoxycarbonyl)-1-isoleucyl)-4-methylpyrrolidin-2-yl)-1H-imidazol-5-yl)-5,10-dihydrochromeno[5,4,3-cde]chromen-2-yl)-4-isopropyl-1H-imidazol-2-yl)-4-methylpyrrolidin-1-yl)-3-methyl-1-oxopentan-2-yl)carbamate]: the EC50 turned out to be 3.2 nM. Still for that read-out and setting: the value for “methyl ((S)-1-((S)-2-(5-(7-(4-chloro-2-((S)-1-((methoxycarbonyl)-L-valyl)pyrrolidin-2-yl)-1H-imidazol-5-yl)-5,10-dihydrochromeno[5,4,3-cde]chromen-2-yl)-4-isopropyl-1H-imidazol-2-yl)pyrrolidin-1-yl)-3-methyl-1-oxobutan-2-yl)carbamate [Compound 77]” was 13.6 nM.

Staying with this assay, now noted: Zika virus, Huh-7, 48 h, Huh7 cells infected with recombinant luciferase reporter ZIKV (MOI about 0.1), luciferase signal.
Regarding `COC(=O)N[C@H](C(=O)N1[C@@H](C)CC[C@H]1c1nc(Cl)c(-c2cc3c4c(c2)OCc2cc(-c5[nH]c([C@@H]6CC[C@H](C)N6C(=O)[C@@H](NC(=O)OC)C(C)C)nc5Cl)cc(c2-4)OC3)[nH]1)C(C)C` [Compound 74, dimethyl ((2S,2′S)-((2S,2′S, 5S,5′S)-((5,10-dihydrochromeno[5,4,3-cde]chromene-2,7-diyl)bis(4-chloro-1H-imidazole-5,2-diyl))bis(2-methylpyrrolidine-5,1-diyl))bis(3-methyl-1-oxobutane-1,2-diyl))dicarbamate], the EC50 worked out at 2 nM. On the same count and under the same terms, the value for `COC(=O)N[C@H](C(=O)N1[C@@H](C)CC[C@H]1c1ncc(-c2cc3c4c(c2)OCc2cc(-c5[nH]c([C@@H]6CC[C@H](C)N6C(=O)[C@@H](NC(=O)OC)C(C)C)nc5Cl)cc(c2-4)OC3)[nH]1)C(C)C` [Compound 75, methyl ((S)-1-((2S,5S)-2-(4-chloro-5-(7-(2-((2S,5S)-1-((methoxycarbonyl)-L-valyl)-5-methylpyrrolidin-2-yl)-1H-imidazol-5-yl)-5,10-dihydrochromeno[5,4,3-cde]chromen-2-yl)-1H-imidazol-2-yl)-5-methylpyrrolidin-1-yl)-3-methyl-1-oxobutan-2-yl)carbamate] was 9.6 nM; that for `COC(=O)N[C@H](C(=O)N1CCC[C@H]1c1nc(C(C)(C)C)c(-c2cc3c4c(c2)OCc2cc(-c5[nH]c([C@@H]6CCCN6C(=O)[C@@H](NC(=O)OC)C(C)C)nc5C(C)(C)C)cc(c2-4)OC3)[nH]1)C(C)C` [Compound 76, Dimethyl ((2S,2′S)-((2S,2′S)-((5,10-dihydrochromeno[5,4,3-cde]chromene-2,7-diyl)bis(4-(tert-butyl)-1H-imidazole-5,2-diyl))bis(pyrrolidine-2,1-diyl))bis(3-methyl-1-oxobutane-1,2-diyl))dicarbamate] was 496 nM; that for `CC[C@H](C)[C@H](NC(=O)OC)C(=O)N1CC2(CC2)C[C@@H]1c1nc(Cl)c(-c2cc3c4c(c2)OCc2cc(-c5[nH]c([C@H]6CC7(CC7)CN6C(=O)[C@@H](NC(=O)OC)[C@@H](C)CC)nc5C(C)C)cc(c2-4)OC3)[nH]1` [Compound 78, methyl ((2S,3S)-1-((R)-6-(5-(7-(4-chloro-2-((R)-5-((methoxycarbonyl)-L-isoleucyl)-5-azaspiro[2.4]heptan-6-yl)-1H-imidazol-5-yl)-5,10-dihydrochromeno[5,4,3-cde]chromen-2-yl)-4-isopropyl-1H-imidazol-2-yl)-5-azaspiro[2.4]heptan-5-yl)-3-methyl-1-oxopentan-2-yl)carbamate] was > 1000 nM. Same read-out and setting: the result for `CCCc1nc([C@@H]2CCCN2C(=O)[C@@H](NC(=O)OC)C(C)C)[nH]c1-c1cc2c3c(c1)OCc1cc(-c4[nH]c([C@@H]5CCCN5C(=O)[C@@H](NC(=O)OC)C(C)C)nc4CCC)cc(c1-3)OC2` [Compound 79, dimethyl ((2S,2′S)-((2S,2′S)-((5,10-dihydrochromeno[5,4,3-cde]chromene-2,7-diyl)bis(4-propyl-1H-imidazole-5,2-diyl))bis(pyrrolidine-2,1-diyl))bis(3-methyl-1-oxobutane-1,2-diyl))dicarbamate] reads 200 nM. On the same count and under the same terms, the result for `COC(=O)N[C@H](C(=O)N1C[C@@H](C)C[C@H]1c1nc(Cl)c(-c2cc3c4c(c2)OCc2cc(-c5[nH]c([C@@H]6C[C@H](C)CN6C(=O)[C@@H](NC(=O)OC)C(C)C)nc5C(C)C)cc(c2-4)OC3)[nH]1)C(C)C` [Compound 80, methyl ((S)-1-((2S,4S)-2-(5-(7-(4-chloro-2-((2S,4S)-1-((methoxycarbonyl)-L-valyl)-4-methylpyrrolidin-2-yl)-1H-imidazol-5-yl)-5,10-dihydrochromeno[5,4,3-cde]chromen-2-yl)-4-isopropyl-1H-imidazol-2-yl)-4-methylpyrrolidin-1-yl)-3-methyl-1-oxobutan-2-yl)carbamate] reads 5.7 nM; that for `COC(=O)N[C@@H](C(=O)N1CC2(CC2)C[C@H]1c1nc(Cl)c(-c2cc3c4c(c2)OCc2cc(-c5[nH]c([C@@H]6CC7(CC7)CN6C(=O)[C@H](NC(=O)OC)C(C)C)nc5C(C)C)cc(c2-4)OC3)[nH]1)C(C)C` [Compound 81, methyl ((R)-1-((S)-6-(5-(7-(4-chloro-2-((S)-5-((methoxycarbonyl)-D-valyl)-5-azaspiro[2.4]heptan-6-yl)-1H-imidazol-5-yl)-5,10-dihydrochromeno[5,4,3-cde]chromen-2-yl)-4-isopropyl-1H-imidazol-2-yl)-5-azaspiro[2.4]heptan-5-yl)-3-methyl-1-oxobutan-2-yl)carbamate], > 1000 nM; that for `COC(=O)N[C@H](C(=O)N1CC2(CC2)C[C@H]1c1nc(Cl)c(-c2cc3c4c(c2)OCc2cc(-c5[nH]c([C@@H]6CC7(CC7)CN6C(=O)[C@@H](NC(=O)OC)C(C)(C)C)nc5C(C)C)cc(c2-4)OC3)[nH]1)C(C)(C)C` [Compound 82, methyl ((S)-1-((S)-6-(5-(7-(4-chloro-2-((S)-5-((S)-2-((methoxycarbonyl)amino)-3,3-dimethylbutanoyl)-5-azaspiro[2.4]heptan-6-yl)-1H-imidazol-5-yl)-5,10-dihydrochromeno[5,4,3-cde]chromen-2-yl)-4-isopropyl-1H-imidazol-2-yl)-5-azaspiro[2.4]heptan-5-yl)-3,3-dimethyl-1-oxobutan-2-yl)carbamate], 2.6 nM. For `CC[C@@H](C)[C@H](NC(=O)OC)C(=O)N1CC2(CC2)C[C@H]1c1nc(Cl)c(-c2cc3c4c(c2)OCc2cc(-c5[nH]c([C@@H]6CC7(CC7)CN6C(=O)[C@@H](NC(=O)OC)[C@H](C)CC)nc5C(C)C)cc(c2-4)OC3)[nH]1` [Compound 83, methyl ((2S,3R)-1-((S)-6-(5-(7-(4-chloro-2-((S)-5-((methoxycarbonyl)-L-alloisoleucyl)-5-azaspiro[2.4]heptan-6-yl)-1H-imidazol-5-yl)-5,10-dihydrochromeno[5,4,3-cde]chromen-2-yl)-4-isopropyl-1H-imidazol-2-yl)-5-azaspiro[2.4]heptan-5-yl)-3-methyl-1-oxopentan-2-yl)carbamate], the EC50 is 2.4 nM.

For the compound `COC(=O)N[C@H](C(=O)N1C[C@H](C)C[C@H]1c1nc(Cl)c(-c2cc3c4c(c2)OCc2cc(-c5[nH]c([C@@H]6C[C@@H](C)CN6C(=O)[C@@H](NC(=O)OC)C(C)C)nc5C(C)C)cc(c2-4)OC3)[nH]1)C(C)C` [Compound 84, methyl ((S)-1-((2S,4R)-2-(5-(7-(4-chloro-2-((2S,4R)-1-((methoxycarbonyl)-L-valyl)-4-methylpyrrolidin-2-yl)-1H-imidazol-5-yl)-5,10-dihydrochromeno[5,4,3-cde]chromen-2-yl)-4-isopropyl-1H-imidazol-2-yl)-4-methylpyrrolidin-1-yl)-3-methyl-1-oxobutan-2-yl)carbamate], the EC50 is 3.3 nM. `COC(=O)N[C@H](C(=O)N1CC2(CC2)C[C@H]1c1nc(Cl)c(-c2cc3c4c(c2)OCc2cc(-c5[nH]c([C@@H]6CC7(CC7)CN6C(=O)[C@@H](NC(=O)OC)C(C)(C)C(F)(F)F)nc5C(C)C)cc(c2-4)OC3)[nH]1)C(C)(C)C(F)(F)F` [Compound 85, methyl ((S)-1-((S)-6-(5-(7-(4-chloro-2-((S)-5-((S)-4,4,4-trifluoro-2-((methoxycarbonyl)amino)-3,3-dimethylbutanoyl)-5-azaspiro[2.4]heptan-6-yl)-1H-imidazol-5-yl)-5,10-dihydrochromeno[5,4,3-cde]chromen-2-yl)-4-isopropyl-1H-imidazol-2-yl)-5-azaspiro[2.4]heptan-5-yl)-4,4,4-trifluoro-3,3-dimethyl-1-oxobutan-2-yl)carbamate]: the EC50 stood at 1.4 nM.

Usually EC50 stands for the concentration needed to bring the measured effect to its halfway point.

Values taken from patent publication US12497408B2, “Tetracyclic compounds and methods for the treatment of Zika virus infection” (priority 2021, dated 2025).
